# Source: patent US10201530B2, “Treatment of BRCA1-defective cancer or resistant cancers” (City of Hope, priority 2014, dated 2019)
# Legend:
# [1] = tested on: HCC1937; test: Cytotoxicity, HCC1937 cells; type: cell-based, human; settings: Homo sapiens; HCC1937, triple negative, BRCA1 mutant; COH29 72 h
# Protocol: (§1) All cell lines were acquired from the American Type Culture Collection (Manassas, Va., USA). Cells were maintained in RPMI 1640 medium (Mediatech) with 10% fetal bovine serum, 2 mM glutamine, and 100 U of penicillin and 100 μg of streptomycin per ml of medium (Sigma) at 37° C. in 5% CO2. To isolate HCC1437+BRCA1 cells, parental HCC1937 cells were transfected with pcDNA3.1 plasmid expressing full-length BRCA1 cDNA. Stable transfectant clones were selected and used for drug sensitivity assays. For stable transfection, cells at 30-40% confluence were incubated overnight with […] of plasmid DNA, using FUGENE® 6 transfectin reagent (Roche Molecular Biochemical, Monza, Italy) according to the manufacturer's instructions. Cells were then selected in puromycin (1 μg/ml) (Invitrogen life Technologies, La Jolla, Calif., USA.) After 20 to 30 days, viable puromycin-resistant colonies from HCC1937 transfections were expanded and screened. The clones that stably expressed […] and retained growth potential were assayed for BRCA1 expression by Western blot analysis. By Western blot analysis, we evaluated the restoration of BRCA1 expression in the puromycin-resistant cDNA/transfectant cells.
# The MTT cytotoxicity assay was performed by incubating with MTT and monitoring the MTT formazan formed by viable cells with a microplate reader at a wavelength of 560 nm; the survival, ratio was determined using the formula: (Atest−Ablank)/(Acontrol−Ablank)×100%. The cytotoxicity was determined in 96-well plates using the semiautomatic fluorescence-based Digital Imaging Microscopy System (DIMSCAN). DIMSCAN uses digital imaging microscopy to quantify viable cells, which selectively accumulate FDA (fluorescein diacetate; Alfa Aesar, Ward Hill, Mass.). DIMSCAN is capable of measuring cytotoxicity over a 4 log dynamic range by quantifying total fluorescence per well (which is proportional to the number of viable cells) after elimination of the background fluorescence by digital thresholding and eosin Y (Mallinckrodt Baker, Center Valley, Pa.) quenching. […]
# [2] = tested on: γ-H2AX, phospho-p53, phospho-ATM, foxo3, Rad51, BRCA1; test: DDR-associated proteins in A549 cells (Western blot, immunofluorescence); type: cell-based, human
# Protocol: Immunofluorescence experiments were conducted as described previously (21,22). Specifically, A549 cells were grown on glass coverslips. After treatment with COH29 (1 or 10 μM) for 24 or 48 hours, cells were fixed with 4% paraformaldehyde for 10 min and permeabilizsd with TRITON™ X-100 (0.5%). The coverslips were washed with phosphate-buffered saline (PBS) and blocked with PBS-containing 2% bovine serum albumin (BSA), incubated with an Ab specific to FOXO3 or ATM-pS1981 or γ-H2AX or p53-pS15 (1:50-1:200 dilution), followed by Alexa 488-conjugated anti-rabbit or anti-mouse (1:200). Alexa 594-conjugated anti-goat (1:100) secondary Abs (Molecular Probes). Cells were incubated with 4′,6-diamidino-2-phenylindole (DAP1; Sigma) to stain the nuclei. Specific staining was visualized and images were captured with a Leica SF2 AOBS confocal laser scanning microscope. To measure foci-positive cells, we used ˜300 cells randomly captured by confocal microscopy. The percentages of considering foci-positive cells were calculated from cells containing at least five foci. Each error bar presented is the mean of standard deviation.
# (§2) For subcellular fractionation, cells were trypsinized and washed with cold PBS solution twice. After centrifugation at 1,200 g for 5 min, cells were incubated in buffer (50 mM HEPES, pH 7.5, 150 mM NaCl, 1 mM EDTA) containing 0.2% NONIDET™ P-40 (NP-40), supplemented with protease inhibitors (5 μg/ml each of pepstatin, leupeptin, and aprotinin) and phosphatase inhibitors on ice for 5 min. Following centrifugation at 1,000 g for 5 min, the supernatant was collected (i.e., cytoplasmic fraction) and pellets were washed with the same buffer twice. The washed samples were extracted for 40 min on ice with fractionation buffer containing 0.5% NP-40 for nuclear fraction. All the samples were sonicated and clarified by centrifugation at 16,000 g for 15 min. Protein concentrations of all fractions were determined with Bio-Rad Protein Assay (Bio-Rad Laboratories, Hercules, Calif.). Immunoblotting was performed as described previously (21,22). Briefly, equal amounts of boiled protein samples were subjected to SDS-polyacrylamide gel electrophoresis (PAGE) and transferred onto nitrocellulose membranes (Bio-Rad Laboratories). Membranes were blocked for 1 hour in 3% BSA in Tris buffered saline containing 0.05% Tween 20 (TBST) and incubated for 1 hour with primary antibody (1:500 or 1:1000) diluted in TBST containing 1% BSA. After two washes with TBST, membranes were incubated for 1 hour with horseradish peroxidase-conjugated secondary Abs (1:3000 dilution) at room temperature. The immunoblots were visualized on film with the West-Q chemi-luminescence kit (GenDEPOT, Barker, Tex.).
# [3] = tested on: KB-7D; test: Cytotoxicity, KB-7D cells; type: cell-based, human; settings: Homo sapiens, KB7D, cisplatin-resistant, read-out: IC50, mean ± SEM
# Protocol: as §1
# (§3) The MTT cytotoxicity assay was performed by incubating with MTT and monitoring the MTT formazan formed by viable cells with a microplate reader at a wavelength of 560 nm; the survival, ratio was determined using the formula: (Atest−Ablank)/(Acontrol−Ablank)×100%. The cytotoxicity was determined in 96-well plates using the semiautomatic fluorescence-based Digital Imaging Microscopy System (DIMSCAN). DIMSCAN uses digital imaging microscopy to quantify viable cells, which selectively accumulate FDA (fluorescein diacetate; Alfa Aesar, Ward Hill, Mass.). DIMSCAN is capable of measuring cytotoxicity over a 4 log dynamic range by quantifying total fluorescence per well (which is proportional to the number of viable cells) after elimination of the background fluorescence by digital thresholding and eosin Y (Mallinckrodt Baker, Center Valley, Pa.) quenching. Cells were seeded into 96-well plates in 100 μL of complete medium at 2,000 to 5,000 cells per well depending on cell line growth rate. After overnight incubation, test compound was added to each well at various concentrations in 50 μL of culture medium. After incubation with the drugs for 96 hours at 37° C., FDA (final concentration: […]) and eosin Y [final concentration: 0.1% (w/v)] were added to each well and the cells were incubated for an additional 20 minutes at 37° C. Total fluorescence per well was then measured using DIMSCAN, and the results were expressed as the ratio of the fluorescence in treated wells to the fluorescence in untreated wells (survival fraction).
# [4] = more potent than HU, ref (6); cited from earlier work
# [5] = tested on: DNA damage checkpoint proteins (ATM, CHK1, CHK2, γ-H2AX); test: DNA damage checkpoint proteins by Western blot; type: cell-based, human
# Protocol: as §2
# [6] = tested on: OVCAR-3; test: Cytotoxicity, OVCAR-3 cells; type: cell-based, human; settings: Homo sapiens, read-out: IC50, mean ± SEM
# Protocol: as §1, §3
compound,measurement,setting,value
O=C(Nc1nc(-c2ccc(O)c(O)c2)c(-c2ccccc2)s1)c1ccc(O)c(O)c1 [COH29],IC50,[1],7.25 ± 0.64 µM
same,"nuclear γ-H2AX, phospho-p53, phospho-ATM","[2]; A549 BRCA1 wild-type NSCLC cells, 48 h","induced accumulation of γ-H2AX, phospho-p53, and phospho-ATM in the nucleus"
same,nuclear foxo3 and p27,[2]; A549 cells,induction of foxo3 and its target protein p27 in the nucleus
same,BRCA1 protein level and Rad51 foci formation,"[2]; A549 cells, 24 h",suppressed the protein level of BRCA1 and Rad51 foci formation
same,"Rad51 expression, Western analysis",[2]; nucleus of A549 cells,downregulated in the nucleus
same,IC50,[3],8.48 ± 0.27 µM
same,potency relative to HU,[4],20 fold
same,γ-H2AX level,[5]; MCF7 and MCF-7 p53−/− cells,increase in the γ-H2AX level
same,"DNA damage checkpoint activation (phosphorylation of ATM, CHK1, CHK2)","[5]; MCF7 cells, wild-type p53",activated the DNA damage checkpoint
same,"DNA damage checkpoint proteins (ATM, CHK1, CHK2) modification",[5]; MCF-7 p53−/− cells,similarly modified
same,IC50,[6],20.5 ± 0.81 µM
